Patent publication US10744214B2, “Method of diagnosing and/or monitoring therapy of atherosclerosis” (STC.UNM, priority 2015, dated 2020)
“Also recorded” adds a separate entry of the source.

What was measured:
neutrophils and PBMCs = assay: Radiolabeled DANBIRT uptake in isolated blood components after ozone exposure; assay type: cell-based, rats; settings: rat blood collected 24 hours post-exposure, 1 hour incubation
Procedure: • 6 week old ApoE KO C57 black male • SPECT imaging 3 hrs and 24 hrs post tail vein Injection of ˜700 uCi (˜25.9 Mbq) of ^111In-DANBIRT • Autoradiography was performed 24 hrs PI of ^111In-DANBIRT after the last imaging time point, • We focused on 3 areas for our region of interest analysis: Aortic arch, carotids and thymus: normalized to muscle. • Whole blood incubation with ^68Ga-DANBIRT and subsequent neutrophil and PBMC isolation were performed from rat blood from animals exposed to filtered air and ozone. • 2 groups: Filtered air (n=3) and ozone (n=3) • Whole blood was collected 24 hrs post exposure • Whole Blood Separation was performed after incubation with ^68Ga-DANBIRT, obtaining 4 samples: serum, red blood cells, neutrophils and peripheral blood mononucleated cells. Staining was performed for specific morphology interpretation and smear cell line purity assessment. Results
Rats were exposed to either filtered air (FA) or ozone (1.0 ppm) for 4 hours using an OREC silent are discharge ozone generator (Osmonics, Phoenix, Ariz.); ozone concentrations were continuously monitored over the course of 4 hours. Exposures took place in a chamber without bedding to minimize ozone scrubbing and to ensure consistent nasal exposures. Whole blood was collected 24 hours post-exposure. Histopaque two-step gradient (Sigma Aldrich, 10771) neutrophil isolation protocol was performed following manufacturer's methods; modified protocol was included for PBMC isolation. Hetastarch at 5% (B. Braun, L6511) was added to whole blood before running isolation protocols. Cell samples were washed and suspended in 1% Gelatin in PBS at a pH of 7.2. Final volumes of neutrophil and PBMC samples were increased to 1 mL. Final samples were identified as serum, RBC, neutrophils and PBMCs and incubated for 1 hour with [^68Ga] Ga-DANBIRT (specific activity of 625 mCi/pM). […] Cell morphology, differentials and sample purity were assessed using a light microscope at 40× objective (Olympus BX51).

LFA-1 [1] = target: T1, LFA-1 (Mus musculus, UniProt P24063); assay: 3 hr [111In] In-DANBIRT SPECT/CT imaging of ApoE-/- mice; assay type: in vivo; settings: HFD fed mice, 3 hr post injection, baseline, 4th and 8th week, normalized to muscle
T1 construct: presence of inflammatory LFA-1 in immune and cardiovascular tissues; from tissue; host or cells: living or euthanized male ApoE-/- C57BL/6 mice: heart, aortic arch, descending aorta, carotids, thymus
T1 sequence (P24063 24-1162): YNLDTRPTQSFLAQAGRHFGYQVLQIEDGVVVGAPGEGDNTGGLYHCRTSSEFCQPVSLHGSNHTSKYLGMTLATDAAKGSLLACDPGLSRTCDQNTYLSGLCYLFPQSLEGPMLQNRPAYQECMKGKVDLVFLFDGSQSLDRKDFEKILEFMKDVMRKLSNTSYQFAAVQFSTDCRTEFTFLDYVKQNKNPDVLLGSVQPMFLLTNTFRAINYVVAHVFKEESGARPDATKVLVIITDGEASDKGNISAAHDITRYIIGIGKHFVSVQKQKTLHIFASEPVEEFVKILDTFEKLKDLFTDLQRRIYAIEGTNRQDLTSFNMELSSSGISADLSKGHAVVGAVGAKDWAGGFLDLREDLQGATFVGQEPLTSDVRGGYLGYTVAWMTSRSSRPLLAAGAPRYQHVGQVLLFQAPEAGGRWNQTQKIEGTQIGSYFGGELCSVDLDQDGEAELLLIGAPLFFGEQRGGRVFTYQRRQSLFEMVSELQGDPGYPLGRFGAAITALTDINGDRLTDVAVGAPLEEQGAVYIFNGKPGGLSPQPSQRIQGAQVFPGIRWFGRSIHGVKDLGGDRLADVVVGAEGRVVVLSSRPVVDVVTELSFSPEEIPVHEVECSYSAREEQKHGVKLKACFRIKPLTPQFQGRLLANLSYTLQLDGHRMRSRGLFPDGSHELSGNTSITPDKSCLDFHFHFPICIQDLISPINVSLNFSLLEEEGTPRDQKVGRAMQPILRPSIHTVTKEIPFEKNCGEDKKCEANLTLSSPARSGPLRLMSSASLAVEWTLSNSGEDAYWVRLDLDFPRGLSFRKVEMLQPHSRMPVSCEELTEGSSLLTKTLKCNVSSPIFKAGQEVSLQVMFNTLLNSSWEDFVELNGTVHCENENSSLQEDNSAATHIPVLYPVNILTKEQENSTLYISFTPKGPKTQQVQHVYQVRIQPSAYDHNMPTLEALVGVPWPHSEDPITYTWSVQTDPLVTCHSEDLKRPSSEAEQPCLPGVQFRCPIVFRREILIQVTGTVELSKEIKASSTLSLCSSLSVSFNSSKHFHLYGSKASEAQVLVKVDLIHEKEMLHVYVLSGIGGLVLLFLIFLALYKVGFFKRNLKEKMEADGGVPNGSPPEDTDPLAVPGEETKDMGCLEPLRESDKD
T1 sequence (P11835 24-771 partner): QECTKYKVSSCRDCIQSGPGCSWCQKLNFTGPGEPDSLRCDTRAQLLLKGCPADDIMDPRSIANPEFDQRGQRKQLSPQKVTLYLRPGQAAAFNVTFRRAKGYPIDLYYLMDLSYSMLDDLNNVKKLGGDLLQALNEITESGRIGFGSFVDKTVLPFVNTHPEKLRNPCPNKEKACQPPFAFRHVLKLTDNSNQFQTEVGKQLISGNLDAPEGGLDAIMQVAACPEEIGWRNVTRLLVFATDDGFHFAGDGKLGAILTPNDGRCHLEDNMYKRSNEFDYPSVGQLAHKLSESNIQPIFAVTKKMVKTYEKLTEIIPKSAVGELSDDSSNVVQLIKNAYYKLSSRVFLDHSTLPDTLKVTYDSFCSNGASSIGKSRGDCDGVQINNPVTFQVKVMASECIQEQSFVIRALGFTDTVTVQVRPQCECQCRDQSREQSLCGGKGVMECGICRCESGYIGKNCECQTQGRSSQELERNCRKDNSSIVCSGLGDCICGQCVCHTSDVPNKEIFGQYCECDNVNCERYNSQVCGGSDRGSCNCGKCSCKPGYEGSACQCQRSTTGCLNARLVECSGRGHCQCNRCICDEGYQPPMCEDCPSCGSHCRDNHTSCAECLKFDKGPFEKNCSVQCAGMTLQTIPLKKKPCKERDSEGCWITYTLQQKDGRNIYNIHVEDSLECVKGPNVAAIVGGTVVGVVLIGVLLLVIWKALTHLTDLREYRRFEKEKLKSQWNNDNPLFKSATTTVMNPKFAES
Procedure: (§1) Methods: 6 week ApoE […] mice were fed either normal or high fat chow (n=8 per group) for 8 weeks to induce vascular atherosclerotic lesions. SPECT/CT imaging was performed 3-hrs post injection of ˜700 uCi of ^111In-DANBIRT at baseline, 4 weeks and 8 weeks. Whole body Autoradiography was performed 24-hrs post injection after 8-week time point. Image processing and analysis was performed by region of interest (ROI) determination in relationship to voxel and volume, uptake quantification was normalized to muscle uptake. Blood partition assays were conducted to ascertain specific binding components. […]
Animals were imaged at […] following 700 μCi via tail vein injection of [^111In] […] Regions of Interests (ROI) were determined and drawn using the best quality image phantom from reconstructed CT (Table 3) to determine muscle, adipose, heart, aortic arch and descending aorta organs using VivoQuant 2.00 (inviCRO, Boston, Mass.). […] Concentration and sum per volume normalized to muscle was determined to identify accurate measurements and eliminate ROI signal interference from adjacent tissues. […]

LFA-1 receptor [2] = assay: Radioisotopic dilution / competitive leukocyte binding assay; parameters: species or system Rat; settings: serum, RBC and PBMC samples
Procedure: (§2) Radioisotopic dilution methods were performed with log-fold serial dilutions at concentrations of 1:1, 1:10, 1:100 and 1:1000 radiolabeled DANBIRT. Rat whole blood was collected and incubated for 10 minutes with [^111In] In-DANBIRT. Leukocyte isolation was performed for neutrophil and PBMC separations post-incubation with radiolabeled DANBIRT (specific activity 625 mCi/pM). Cytospin 2 (Shandon 2,59900002) with double-funnel and white filter (Simport, 930941126) was used for clustered cell differentials identification methods. Cytospin samples were spread in Superfrost Plus slides (VWR, 48311-703) and fixed with […]. Wright-Giemsa horizontal staining protocol was performed according to manufacturer's package insert instructions (Sigma Aldrich, SLBN4704V). Cell morphology, differentials and sample purity were assessed using a light microscope at 40× objective (Olympus BX51).

LFA-1 receptor [3] = target: T2, LFA-1 receptor (Rattus norvegicus, UniProt F1LP44); assay: as above; settings: compared to neutrophil sample, p<0.05
T2 construct: endogenous in cells; host or cells: neutrophils and PBMCs from whole blood of male Sprague Dawley rats
T2 sequence (F1LP44 24-1161): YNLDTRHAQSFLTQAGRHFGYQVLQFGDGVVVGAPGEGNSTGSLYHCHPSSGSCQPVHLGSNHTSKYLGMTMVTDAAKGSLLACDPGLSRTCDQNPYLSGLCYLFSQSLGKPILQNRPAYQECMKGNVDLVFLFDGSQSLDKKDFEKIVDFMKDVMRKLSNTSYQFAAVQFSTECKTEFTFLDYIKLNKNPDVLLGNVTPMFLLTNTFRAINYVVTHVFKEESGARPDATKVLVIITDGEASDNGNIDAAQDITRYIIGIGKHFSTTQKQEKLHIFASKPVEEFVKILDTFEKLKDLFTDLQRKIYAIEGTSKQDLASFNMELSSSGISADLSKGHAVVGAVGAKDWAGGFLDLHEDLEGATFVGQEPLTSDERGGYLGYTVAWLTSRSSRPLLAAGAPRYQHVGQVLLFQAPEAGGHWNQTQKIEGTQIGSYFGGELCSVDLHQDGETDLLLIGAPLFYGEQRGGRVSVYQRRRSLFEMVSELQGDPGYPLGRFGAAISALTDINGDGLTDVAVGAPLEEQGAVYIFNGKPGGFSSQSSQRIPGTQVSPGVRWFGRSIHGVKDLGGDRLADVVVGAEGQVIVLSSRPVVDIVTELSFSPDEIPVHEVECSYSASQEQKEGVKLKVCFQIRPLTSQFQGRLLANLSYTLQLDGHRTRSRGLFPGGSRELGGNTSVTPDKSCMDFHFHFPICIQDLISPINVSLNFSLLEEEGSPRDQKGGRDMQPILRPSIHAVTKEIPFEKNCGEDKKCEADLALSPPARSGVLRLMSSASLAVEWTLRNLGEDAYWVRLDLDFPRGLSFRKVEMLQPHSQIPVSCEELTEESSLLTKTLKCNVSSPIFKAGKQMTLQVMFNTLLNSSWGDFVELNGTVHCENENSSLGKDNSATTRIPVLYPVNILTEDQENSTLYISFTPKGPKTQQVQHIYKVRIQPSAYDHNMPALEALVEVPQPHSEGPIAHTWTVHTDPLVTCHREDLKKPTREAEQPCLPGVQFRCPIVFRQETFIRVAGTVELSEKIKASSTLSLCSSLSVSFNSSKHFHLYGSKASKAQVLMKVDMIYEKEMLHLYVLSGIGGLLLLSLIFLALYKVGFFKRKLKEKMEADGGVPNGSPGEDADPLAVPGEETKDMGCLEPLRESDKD
Procedure: as §2

[4] = In vitro stability of radiolabeled DANBIRT in fetal bovine serum and 0.9% saline; assay type: in vitro ADME; settings: FBS and 0.9% saline, 4 hours
Procedure: Incubation of [^68Ga] Ga-DANBIRT with Fetal Bovine Serum (FBS) (Atlanta Biologicals, S11150) and 0.9% saline solution was performed in vitro stability analysis. Triplicate samples were drawn from radiolabeled stock and kept incubated at 37° C. until time of analysis. ITLC was performed once at each time point and HPLC assessment was performed in triplicates at baseline, 5, 10, 30, 60, 120 and 240 minutes of incubation. The mean incorporation yield and radiochemical purity were calculated from sample results. Following methods by Poria et al methods were modified for use in a Ultra-Performance Liquid Chromatography (UPLC) using an Acquity UPLC BEH C-18 1.7 μm column (2.1×50 mm) (Waters Corporation, 186002350). UPLC gradient with flow rate is described in FIG. 14.

LFA-1 [5] = target: T1, LFA-1; assay: 24 hr [111In] In-DANBIRT 3D autoradiography of ApoE-/- mice; assay type: in vivo
Procedure: as §1
Mice were euthanized by CO2 method after 8 weeks of dietary assessment. […] Autoradiography and white light files were compiled and analyzed using VivoQuant 2.00 (inviCRO, Boston, Mass.). Determined ROI were drawn using the best quality image phantom from reconstructed CT (FIG. 14, Table 3) for the thymus, muscle, carotids and aortic arch. […]

[6] = Ex vivo biodistribution of [111In] In-DANBIRT post tail vein injection in ApoE-/- mice
Procedure: • Animals were imaged for ˜75 minutes 3 hrs post tail vein injection of ˜700 uCi (˜25.9 Mbq) of ^111In-DANBIRT • Atorvastatin was administered in the drinking water and PPAR-Delta agonist (GW1516) was incorporated into food pellets by diet manufacturing company. • Organ and serum collection for bio distribution and lipid levels and sub particles size analysis was performed after last imaging time point
Upon completion of 8 weeks on normal or HFD, mice were euthanized 3 hours post-injection of 700 μCi of [^111In] In-DANBIRT via tail vein; organs were harvested for weight assessment and [^111In] In-DANBIRT uptake using an Automatic Wizard 2 Gamma counter (Perkin Elmer). Organs collected were: tail, whole blood, aorta (from aortic arch to thoracic aorta), carotids (front aortic arch to bifurcation), heart, liver, muscle and adipose tissue. Whole blood was collected with direct cardiac puncture of right ventricle using a 24-gauge needle of right ventricle with a heparinized syringe and centrifuged for 15 minutes at 1000 g at 4° C. Serum, erythrocytes (RBC) and leukocytes (WBC) containing isolated samples were collected and measured for [^111In] In-DANBIRT uptake using a gamma counter. Uptake was decay-corrected and percent-injected activity per gram (% IA/gr) was determined for each mouse.

[7] = 8 weeks of diet, 3 hours post-injection, p<0.05

uptake in heart, aortic arch and descending aorta ROI (SPECT/CT) (LFA-1 [1]; listed as 111In-DANBIRT)	decrease of initial uptake after each log fold dilution concentration (LFA-1 receptor [2]) [%]	saturation in PBMCs at different dilution concentrations (LFA-1 receptor [3])	uptake in the thymus (LFA-1 [5]; Example 1, autoradiography and SPECT/CT analysis)	uptake in RBC and WBC samples, HFD vs normal diet [6, 7]	% IA/gr of tissue, HFD vs normal diet ([6]; 8 weeks of diet, p<0.05)	uptake in adipose tissue and muscle ([6]; 3 hours post-injection)	uptake in serum compared to other blood components ([6]; 3 hours post-injection of 700 μCi)	uptake in liver compared to other tissues ([6]; 3 hours post-injection of 700 μCi, regardless of dietary treatment)	organ bio distribution uptake in liver, serum, aorta and blood components ([6]; Example 2, 1st cohort)	SMILES	uptake in PBMCs post-ozone exposure (neutrophils and PBMCs)	uptake in serum post-ozone exposure (neutrophils and PBMCs)	uptake in neutrophils post 4-hour ozone exposure vs filtered air (neutrophils and PBMCs; p=0.008)	uptake in heart, aortic arch and descending aorta ROI (SPECT/CT) (LFA-1 [1])	stability on incubation [4]	uptake in carotids and thymus, concentration per volume normalized to muscle, HFD vs normal diet (LFA-1 [5]; 24 hr post injection after 8 weeks of diet)	uptake in cardiovascular tissues (heart, aorta, carotids), HFD vs normal diet [6, 7]
										C[C@]1(Cc2ccc(Br)cc2)C(=O)N(c2cc(Cl)cc(Cl)c2)C(=O)N1CCCCNC(=O)CN1CCN2CCN3CCN(CC1)CC(=O)[O][68Ga]([O]C(=O)C2)[O]C(=O)C3 [[^68Ga] Ga-DANBIRT]	decreased uptake; also recorded: decrease	decrease	increased uptake				
longitudinal increase in uptake	50	did not evidence any saturation levels	Increased uptake	increased uptake	increase	low uptake	high uptake	high uptake	significant uptake	C[C@]1(Cc2ccc(Br)cc2)C(=O)N(c2cc(Cl)cc(Cl)c2)C(=O)N1CCCCNC(=O)CN1CCN2CCN3CCN(CC1)CC(=O)[O][111In]([O]C(=O)C2)[O]C(=O)C3 [[^111In] In-DANBIRT]				longitudinal increased uptake; also recorded: Increased longitudinal uptake	maintained throughout 4 hours of incubation	increase; also recorded: Increased uptake	higher uptake
